Data taken from PubChem BioAssay (NCI).
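48-hour exposure; five concentrations; linearly interpolated endpoints. Abbreviation: GI50, concentration required for 50% inhibition of growth. TGI denotes the concentration required for complete inhibition of growth.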

Tests used:
Test in all cases: inhibition of tumour cell growth, NCI panel, 48 h
NCI/ADR-RES ovarian = tested on: NCI/ADR-RES ovarian
KM12 colon = tested on: KM12 colon
SF-295 CNS = tested on: SF-295 CNS
SNB-19 CNS = tested on: SNB-19 CNS
DU-145 prostate = tested on: DU-145 prostate
HCC-2998 colon = tested on: HCC-2998 colon
EKVX NSCLC = tested on: EKVX NSCLC
MDA-MB-435 = tested on: MDA-MB-435
OVCAR-5 ovarian = tested on: OVCAR-5 ovarian
SNB-75 CNS = tested on: SNB-75 CNS
HOP-92 NSCLC = tested on: HOP-92 NSCLC
SW-620 colon = tested on: SW-620 colon
HCT-15 colon = tested on: HCT-15 colon
BT-549 breast = tested on: BT-549 breast
TK-10 renal = tested on: TK-10 renal
HT29 colon = tested on: HT29 colon
SK-MEL-2 melanoma = tested on: SK-MEL-2 melanoma
SF-268 CNS = tested on: SF-268 CNS
786-0 renal = tested on: 786-0 renal
SN12C renal = tested on: SN12C renal
UACC-257 melanoma = tested on: UACC-257 melanoma
SK-MEL-5 melanoma = tested on: SK-MEL-5 melanoma
CAKI-1 renal = tested on: CAKI-1 renal
SK-MEL-28 melanoma = tested on: SK-MEL-28 melanoma
A498 renal = tested on: A498 renal
CCRF-CEM leukemia = tested on: CCRF-CEM leukemia
NCI-H522 lung = tested on: NCI-H522 lung
MCF7 breast = tested on: MCF7 breast
NCI-H226 lung = tested on: NCI-H226 lung

Which results are given for `CN1CCC(n2cc(Nc3ncc4c(=O)n(-c5c(Cl)cccc5Cl)cc(Br)c4n3)cn2)CC1`?
GI50 (NCI/ADR-RES ovarian): 288 nM; TGI (NCI/ADR-RES ovarian): 15300 nM; GI50 (KM12 colon): 551 nM; TGI (KM12 colon): 16300 nM; GI50 (SF-295 CNS): 939 nM; TGI (SF-295 CNS): 15500 nM; GI50 (SNB-19 CNS): 693 nM; TGI (SNB-19 CNS): 13600 nM; GI50 (DU-145 prostate): 1300 nM; TGI (DU-145 prostate): 14800 nM; GI50 (HCC-2998 colon): 740 nM; TGI (HCC-2998 colon): 12500 nM; GI50 (EKVX NSCLC): 2770 nM; TGI (EKVX NSCLC): 18000 nM; GI50 (MDA-MB-435): 148 nM; TGI (MDA-MB-435): 10300 nM; GI50 (OVCAR-5 ovarian): 1360 nM; TGI (OVCAR-5 ovarian): 12300 nM; GI50 (SNB-75 CNS): 611 nM; TGI (SNB-75 CNS): 11300 nM; GI50 (HOP-92 NSCLC): 102 nM; TGI (HOP-92 NSCLC): 3730 nM; GI50 (SW-620 colon): 1200 nM; TGI (SW-620 colon): 11800 nM; GI50 (HCT-15 colon): 368 nM; TGI (HCT-15 colon): 11300 nM; GI50 (BT-549 breast): 399 nM; TGI (BT-549 breast): 4640 nM; GI50 (TK-10 renal): 178 nM; TGI (TK-10 renal): 17400 nM; GI50 (HT29 colon): 142 nM; TGI (HT29 colon): 2620 nM; GI50 (SK-MEL-2 melanoma): 192 nM; TGI (SK-MEL-2 melanoma): 1730 nM; GI50 (SF-268 CNS): 2160 nM; TGI (SF-268 CNS): 16500 nM; GI50 (786-0 renal): 241 nM; TGI (786-0 renal): 8320 nM; GI50 (SN12C renal): 235 nM; TGI (SN12C renal): 11400 nM; GI50 (UACC-257 melanoma): 1270 nM; TGI (UACC-257 melanoma): 9280 nM; GI50 (SK-MEL-5 melanoma): 419 nM; TGI (SK-MEL-5 melanoma): 17500 nM; GI50 (CAKI-1 renal): 98.4 nM; TGI (CAKI-1 renal): 11500 nM; GI50 (SK-MEL-28 melanoma): 4100 nM; TGI (SK-MEL-28 melanoma): 18900 nM; GI50 (A498 renal): 62.8 nM; TGI (A498 renal): 3190 nM; GI50 (CCRF-CEM leukemia): 75 nM; TGI (CCRF-CEM leukemia): 6360 nM; GI50 (NCI-H522 lung): 424 nM; TGI (NCI-H522 lung): 2650 nM; GI50 (MCF7 breast): 181 nM; TGI (MCF7 breast): 7250 nM; GI50 (NCI-H226 lung): 1290 nM; TGI (NCI-H226 lung): 11400 nM
